Test [1] can be described thus: Liver function (GPT) in a patient with chronic hepatitis B. It is filed as in vivo, human. On the procedure:
(§1) Confirmation of the effect of IFN administration to a patient with chronic hepatitis B:
(§2) Therefore, 3,000,000 units of IFN-α were administered for a total of 28 days.

Test [2] deals with hepatitis B virus. The test can be described thus: Amount of hepatitis B virus in the blood (HBV-DNA) and emergence of resistant virus in a patient with chronic hepatitis B. It is filed as in vivo, human. The note with it: after termination of IFN-α; 3,000,000 units for a total of 28 days. On the procedure: as §1, §2

Consider `Nc1ccn([C@@H]2CS[C@H](CO)O2)c(=O)n1` [lamivudine, reference compound], for which the “GPT (liver function acutely worsened)” value in test [1] (about 3 months after discontinuation of second lamivudine administration) is reported as 567.

On to interferon-α [IFN-α], for which the “amount of hepatitis B virus in the blood” value in test [2] was “again increased”. In addition, the liver function entry in test [1] (3,000,000 units of IFN-α in combination with lamivudine, resistant virus present) was “further worsened”; in test [1] (after termination of IFN-α, 3,000,000 units for a total of 28 days), “worsened”.

These data come from patent US20040234501A1, “Hepatitis b virus proliferation inhibitor” (priority 2001, published 2004).
